Assay results published in patent US12016834B2, “Small molecule inhibitors of SLC25A1” (GEORGETOWN UNIVERSITY, priority 2017, dated 2024).

Legend:
H1299 cells = experiment: Sphere forming / self-renewal assay; assay type: cell-based, human
Description: Growth of monolayers and sphere cultures. Tumor cell lines were grown as monolayers in complete Dulbecco's Modified Eagle's Media (DMEM, Gibco; supplemented with 10% fetal bovine serum and 1% of 5,000 units/mL of penicillin-streptomycin (pen-strep), Gibco). To generate spheroids, cells were grown in Falcon bacteriological petri dishes coated with 2% poly(2-hydroxyethyl methacrylate) dissolved in 100% ethanol. The growth media was DMEM/F12 (Gibco) supplemented with 20 ng/mL of epidermal growth factor (EGF), 5 ng/mL of fibroblast growth factor, 0.375% 100× N2 supplements (Gibco), and 1% pen-strep. Monolayer cells were dissociated using 0.25% trypsin-edta (Gibco), whereas spheroid cultures were dissociated using StemPro Accutase (Gibco). Patient derived cell lines were grown as described below in the primary lung cultures section.
(§1) Self-renewal assays. Tumor cells cultured as spheroids were dissociated and diluted in 2× sphere media containing 1% methyl cellulose, which was previously dissolved in cold DMEM/F12 media. Either 200, 500, or 1000 cells were then plated in each 96 well and were incubated in the presence or absence of drugs, as indicated. The spheres were allowed to form for a period of a week to ten days, at which point they were counted. Six biological replicates were used for quantification of the results.

MP1 cells [1] = experiment: Self-renewal and sphere forming in methylcellulose; assay type: cell-based, human; conditions: semi-solid media
Description: as §1
(§2) Primary lung cancer cultures and GMSC. Surgical samples were minced and digested with dispase (50 U/ml) in DMEM media containing 5% serum for 1 hour. Pleural effusions were centrifuged, washed once in PBS, and then plated. All primary cultures were initially grown on 6-well plates pre-coated with 2% Geltrex (Life Technologies; Carlsbad, CA) and 1% Maxgel (Sigma Aldrich). Maxgel is a humanized matrix, native and non-denatured. The inclusion of Maxgel in the system enhanced the initial attachment of primary tumor cells, partially because Maxgel provides a more natural ECM conformational substrate. The day after plating, the media containing unattached cells was typically transferred to a fresh plate, in most of cases generating new attached cultures. […]

MP2 cells [2] = experiment: Self-renewal and sphere forming in methylcellulose; assay type: cell-based, human; conditions: semi-solid media
Description: as §1, §2

MP1 tumor spheres = experiment: Spheroid-based matrix invasion assay (invadopodia); assay type: cell-based, human; conditions: spheres embedded in geltrex
Description: Invadopodia measurements. After embedding the spheres in a 3D matrix, their extent of invasion was monitored over […]. Using an inverted microscope set at a magnification of 20×, images of the spheres were obtained at 0 hours, 24 hours, and 48 hours after plating. Analysis for invasion was done using ‘imageJ’ by NIH. The area of invasion was measured by sketching an outline around the spheres using the freehand draw tool. The ‘measure’ tool in ‘Analyze’ on the top menu calculated the area for the selected spheroid. The areas of just the spheres (inner area) and the area of the spheres along with its invadopodia (outer area) were measured. The percent difference between the outer area and the inner area was graphed to understand the extent of invasion in each cell type at different time points. The obtained areas for all the spheres were graphed. Spheres of similar areas were selected, whereas the outliers were eliminated so as to compare the spheres of similar volumes.

MP1 cells [3] = experiment: Tumor xenograft in immuno-compromised mice; assay type: in vivo
Description: (§3) Mice and treatments. To produce tumor xenografts, 5×10^6 cells derived from either monolayer cultures or GMSC expanded spheres were dissociated with Accutase, resuspended in PBS, and injected subcutaneously in the flanks of female balb athymic mice. Once detectable tumors started to form, their sizes were measured with a caliper in three dimensions and mice were randomized in the different treatment groups. […] Cisplatin was administered at 26 mg/kg every three or four days. AZD9291 was administered at 25/mg/Kg every 3 days. Serial measurements were made every day after the identification of the initial tumor mass to determine growth curves in vivo. Tumor volume was calculated using the formula for a prolate spheroid: volume=[…], where a is the width and b is the length. All animals were sacrificed when the tumors exceeded 1.5 cm. At the completion of experiments, tumors were excised, weighed, and the statistical significances of differences in tumor volume were assessed. Animals were monitored once a week for the presence of signs of disease, particularly neurological disturbances or weight loss, and they were weighed periodically.
(§4) Statistics. For the animal studies, power calculations for each treatment group were first determined. The number of animals was calculated to detect a 50% difference at alpha=0.05 and power=0.8. Statistical significance was assessed using both unpaired, two-tailed Student t test, and analysis of variance (ANOVA). Significant differences are indicated using the standard […] scale (P<0.05, significant; P<0.01, highly significant; P<0.001, extremely significant).

MP2 cells [4] = experiment: Tumor xenograft in immuno-compromised mice; assay type: in vivo; conditions: co-treatment with AZD9291, relative to AZD9291 alone
Description: as §3, §4

SMILES: O=C(O)c1ccccc1NS(=O)(=O)c1ccc(Cl)c([N+](=O)[O-])c1 [CTPI-2]
- sphere forming capacity, compared with CTPI-1 (H1299 cells; FIG. 2E): inhibited sphere forming capacity more efficiently than CTPI-1
- activity in spheres versus 2D/monolayer cultures (H1299 cells; sphere forming assay compared with monolayer): significantly more prominent in spheres than in 2D cultures
- self-renewal and sphere forming ability (MP1 cells [1]): blunted self-renewal and sphere forming ability
- self-renewal and sphere forming ability (MP2 cells [2]): blunted self-renewal and sphere forming ability
- matrix invasion (MP1 tumor spheres): completely reverted this phenotype
- tumor growth inhibition, single agent (MP1 cells [3]; 26 mg/Kg alternate days i.p., GMSC-derived versus monolayer-derived tumors): more effective in inhibiting the growth of GMSC-derived MP1 tumors
- body weights (MP1 cells [3]; 26 mg/Kg at alternate days intra-peritoneally): remained unchanged
- tolerability (MP1 cells [3]; 26 mg/Kg at alternate days intra-peritoneally, entire treatment period): well tolerated
- tumor growth inhibition, combination (MP1 cells [3]; CTPI-2 added to the cisplatin regimen): very significant
- stem cell markers in tumors (immuno-blot) (MP1 cells [3]; GMSC-derived tumors (FIG. 7F)): dramatic reduction
- tumor doubling times (MP1 cells [3]; relative to mock- and cisplatin-treated groups): significantly extended the tumor doubling times
- tumor growth inhibition, combination (MP2 cells [4]): prominent enhancement of tumor growth inhibition
